Target: T1, hCD38 Enzyme (Homo sapiens, UniProt P28907)
T1 construct: purchased Sino Biological Inc 10818-H08H
T1 sequence (P28907 43-300 limits assumed): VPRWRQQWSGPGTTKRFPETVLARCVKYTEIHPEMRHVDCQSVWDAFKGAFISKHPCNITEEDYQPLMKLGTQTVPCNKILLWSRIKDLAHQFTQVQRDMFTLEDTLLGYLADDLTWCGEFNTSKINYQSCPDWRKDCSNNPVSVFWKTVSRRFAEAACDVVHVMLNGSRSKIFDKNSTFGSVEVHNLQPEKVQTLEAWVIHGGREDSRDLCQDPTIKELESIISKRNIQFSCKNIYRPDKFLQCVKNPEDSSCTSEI
Test: CD38 hydrolase enzymatic assay
Assay type: biochemical
Details: rhCD38, ε-NAD substrate, 25° C., point reading time 20 mins; read-out: hCD38 Enzyme inhibition IC50
Experimental: Also, a blank sample was prepared with 50 μl of sucrose buffer and no test compounds.
The dynamic reading was performed at 25° C. with excitation light of 300 nm and emission light of 410 nm on the enzyme marker by contacting the above-prepared rhCD38 enzyme working fluid and the above-prepared solutions of the test compounds disclosed herein or the solution of the control. The readings were recorded for a total of 1 hour, and the data were analyzed with the point reading time of 20 mins.
Fluorescence was recorded by a microplate reader. Individual excel files containing fluorescence data were exported and the results were plotted against various drug concentrations and analyzed in GraphPad Prism 7.0 for concentration curve generation.

Row | Structure (SMILES) | IC50
1 | CO[C@H]1CC[C@H](NC(=O)c2cc(-n3ccnc3)cc(C)n2)CC1 [compound 50, 4-(1H-imidazol-1-yl)-N-((1r,4r)-4-methoxycyclohexyl)-6-methylpicolinamide] | > 10000 nM
2 | CO[C@H]1CC[C@H](NC(=O)c2cc(-n3ccnn3)cc3cc[nH]c23)CC1 [compound 54, N-((1r,4r)-4-methoxycyclohexyl)-5-(1H-1,2,3-triazol-1-yl)-1H-indole-7-carboxamide] | 6850 nM
3 | CO[C@H]1CC[C@H](NC(=O)c2cc(-n3nccn3)cc3cc[nH]c23)CC1 [compound 55, N-((1r,4r)-4-methoxycyclohexyl)-5-(2H-1,2,3-triazol-2-yl)-1H-indole-7-carboxamide] | > 10000 nM
4 | CO[C@H]1CC[C@H](NC(=O)c2cc(-n3ccnc3)cnc2N)CC1 [compound 59, 2-amino-5-(1H-imidazol-1-yl)-N-((1r,4r)-4-methoxycyclohexyl) nicotinamide] | > 10000 nM
5 | CO[C@H]1CC[C@H](NC(=O)c2nc(-n3ccnc3)ccc2N)CC1 [compound 60, 3-amino-6-(1H-imidazol-1-yl)-N-((1r,4r)-4-methoxycyclohexyl) picolinamide] | 17 nM
6 | O=C(Nc1cccnc1)c1ccnc(-n2ccnc2)n1 [compound 66, 2-(1H-imidazol-1-yl)-N-(pyridin-3-yl)pyrimidine-4-carboxamide] | 1.7 nM
7 | CO[C@H]1CC[C@H](NC(=O)c2cc(-n3ccnc3)ncc2N)CC1 [compound 69, 5-amino-2-(1H-imidazol-1-yl)-N-((1r,4r)-4-methoxycyclohexyl) isonicotinamide] | 111 nM
8 | COc1ccc(C(=O)N[C@H]2CC[C@H](OC)CC2)nc1-n1ccnc1 [compound 74, 6-(1H-imidazol-1-yl)-5-methoxy-N-((1r,4r)-4-methoxycyclohexyl) picolinamide] | 4040 nM
9 | O=C(Nc1ccccc1)c1cccc(-n2ccnc2)n1 [compound 81, 6-(1H-imidazol-1-yl)-N-phenylpicolinamide] | 15 nM
10 | O=C(Nc1ccccc1)c1ccnc(-n2ccnc2)n1 [compound 82, 2-(1H-imidazol-1-yl)-N-phenylpyrimidine-4-carboxamide] | 3 nM
11 | Cc1ccccc1NC(=O)c1ccnc(-n2ccnc2)n1 [compound 83, 2-(1H-imidazol-1-yl)-N-(o-tolyl)pyrimidine-4-carboxamide] | 132 nM
12 | O=C(Nc1ccccc1F)c1ccnc(-n2ccnc2)n1 [compound 84, N-(2-fluorophenyl)-2-(1H-imidazol-1-yl)pyrimidine-4-carboxamide] | 13 nM
13 | O=C(Nc1ccccc1Cl)c1ccnc(-n2ccnc2)n1 [compound 85, N-(2-chlorophenyl)-2-(1H-imidazol-1-yl)pyrimidine-4-carboxamide] | 29 nM
14 | CO[C@H]1CC[C@H](NC(=O)c2ccnc(-n3cccn3)n2)CC1 [compound 100, N-((1r,4r)-4-methoxycyclohexyl)-2-(1H-pyrazol-1-yl)pyrimidine-4-carboxamide] | 3430 nM
15 | O=C(Nc1cccc(F)c1)c1cc(N2CCCCC2)nc(-n2ccnc2)n1 [compound 101, N-(3-fluorophenyl)-2-(1H-imidazol-1-yl)-6-(piperidin-1-yl)pyrimidine-4-carboxamide] | 17 nM
16 | O=C(Nc1cccc(F)c1)c1ccnc(-n2cccn2)n1 [compound 102, N-(3-fluorophenyl)-2-(1H-pyrazol-1-yl)pyrimidine-4-carboxamide] | > 10000 nM
17 | CO[C@H]1CC[C@H](NC(=O)c2cc(C(F)(F)F)nc(-n3ccnc3)n2)CC1 [compound 103, 2-(1H-imidazol-1-yl)-N-((1r,4r)-4-methoxycyclohexyl)-6-(trifluoromethyl) pyrimidine-4-carboxamide] | 28 nM
18 | CO[C@H]1CC[C@H](NC(=O)c2cc(OC3CCC3)nc(-n3ccnc3)n2)CC1 [compound 104, 6-cyclobutoxy-2-(1H-imidazol-1-yl)-N-((1r,4r)-4-methoxycyclohexyl)pyrimidine-4-carboxamide] | 26 nM
19 | COc1cc(C(=O)N[C@H]2CC[C@H](OC)CC2)nc(-n2ccnc2)n1 [compound 105, 2-(1H-imidazol-1-yl)-6-methoxy-N-((1r,4r)-4-methoxycyclohexyl) pyrimidine-4-carboxamide] | 20 nM
20 | CO[C@H]1CC[C@H](NC(=O)c2cc(C#N)nc(-n3ccnc3)n2)CC1 [compound 106, 6-cyano-2-(1H-imidazol-1-yl)-N-((1r,4r)-4-methoxycyclohexyl)pyrimidine-4-carboxamide] | 18 nM
21 | O=C(Nc1ccccn1)c1ccnc(-n2ccnc2)n1 [compound 112, 2-(1H-imidazol-1-yl)-N-(pyridin-2-yl)pyrimidine-4-carboxamide] | 20 nM
22 | O=C(Nc1cccc(F)c1)c1cc(N2CCOCC2)nc(-n2ccnc2)n1 [compound 114, N-(3-fluorophenyl)-2-(1H-imidazol-1-yl)-6-morpholinopyrimidine-4-carboxamide] | 5 nM

Continued, values first:

Row | IC50 | Structure (SMILES)
23 | 96 nM | CC(=O)N1CCC(NC(=O)c2cncc(-n3ccnc3)n2)CC1 [compound 40, N-(1-acetylpiperidin-4-yl)-6-(1H-imidazol-1-yl)pyrazine-2-carboxamide]
24 | 13 nM | CO[C@H]1CC[C@H](NC(=O)c2nc(-n3ccnc3)cnc2N)CC1 [compound 41, 3-amino-6-(1H-imidazol-1-yl)-N-((1r,4r)-4-methoxycyclohexyl) pyrazine-2-carboxamide]
25 | 11 nM | Nc1ncc(-n2ccnc2)nc1C(=O)NC1CCCCC1 [compound 42, 3-amino-N-cyclohexyl-6-(1H-imidazol-1-yl)pyrazine-2-carboxamide]
26 | 536 nM | CO[C@H]1CC[C@H](NC(=O)c2nc(-n3ccnc3)cnc2N(C)C)CC1 [compound 46, 3-(dimethylamino)-6-(1H-imidazol-1-yl)-N-((1r,4r)-4-methoxycyclohexyl) pyrazine-2-carboxamide]
27 | 38 nM | CNc1ncc(-n2ccnc2)nc1C(=O)N[C@H]1CC[C@H](OC)CC1 [compound 47, 6-(1H-imidazol-1-yl)-N-((1r,4r)-4-methoxycyclohexyl)-3-(methylamino)pyrazine-2-carboxamide]
28 | 70 nM | O=C(NC1CCCCC1)c1cccc(-n2ccnc2)n1 [compound 49, N-cyclohexyl-6-(1H-imidazol-1-yl)picolinamide]
29 | 9 nM | CO[C@H]1CC[C@H](NC(=O)c2cc(Cl)cc(-n3ccnc3)n2)CC1 [compound 51, 4-chloro-6-(1H-imidazol-1-yl)-N-((1r,4r)-4-methoxycyclohexyl) picolinamide]
30 | 55 nM | CO[C@H]1CC[C@H](NC(=O)c2cc(C)cc(-n3ccnc3)n2)CC1 [compound 52, 6-(1H-imidazol-1-yl)-N-((1r,4r)-4-methoxycyclohexyl)-4-methylpicolinamide]
31 | 36 nM | CO[C@H]1CC[C@H](NC(=O)c2cc(C(F)(F)F)cc(-n3ccnc3)n2)CC1 [compound 53, 6-(1H-imidazol-1-yl)-N-((1r,4r)-4-methoxycyclohexyl)-4-(trifluoromethyl) picolinamide]
32 | 15 nM | Nc1ccc(-n2ccnc2)nc1C(=O)NC1CCCCC1 [compound 61, 3-amino-N-cyclohexyl-6-(1H-imidazol-1-yl)picolinamide]
33 | > 10000 nM | CO[C@H]1CC[C@H](NC(=O)c2nc(-n3ccnc3)cnc2O)CC1 [compound 67, 3-hydroxy-6-(1H-imidazol-1-yl)-N-((1r,4r)-4-methoxycyclohexyl)pyrazine-2-carboxamide]
34 | 73 nM | CO[C@H]1CC[C@H](NC(=O)c2nc(-n3ccnc3)ccc2O)CC1 [compound 71, 3-hydroxy-6-(1H-imidazol-1-yl)-N-((1r,4r)-4-methoxycyclohexyl) picolinamide]
35 | 16 nM | O=C(NC1CCCCC1)c1ccnc(-n2ccnc2)n1 [compound 72, N-cyclohexyl-2-(1H-imidazol-1-yl)pyrimidine-4-carboxamide]
36 | 389 nM | CO[C@H]1CC[C@H](NC(=O)c2nc(-n3ccnc3)ccc2Cl)CC1 [compound 75, 3-chloro-6-(1H-imidazol-1-yl)-N-((1r,4r)-4-methoxycyclohexyl) picolinamide]
37 | > 10000 nM | CO[C@H]1CC[C@H](NC(=O)c2ccc(C)c(-n3ccnc3)n2)CC1 [compound 76, 6-(1H-imidazol-1-yl)-N-((1r,4r)-4-methoxycyclohexyl)-5-methylpicolinamide]
38 | 2450 nM | CO[C@H]1CC[C@H](NC(=O)c2ccc(Cl)c(-n3ccnc3)n2)CC1 [compound 77, 5-chloro-6-(1H-imidazol-1-yl)-N-((1r,4r)-4-methoxycyclohexyl) picolinamide]
39 | > 10000 nM | Cc1cn(-c2cncc(C(=O)NC3CCCCC3)n2)cn1 [compound 78, N-cyclohexyl-6-(4-methyl-1H-imidazol-1-yl)pyrazine-2-carboxamide]
40 | 2190 nM | Cc1cncn1-c1cncc(C(=O)NC2CCCCC2)n1 [compound 79, N-cyclohexyl-6-(5-methyl-1H-imidazol-1-yl)pyrazine-2-carboxamide]
41 | > 10000 nM | Cc1nccn1-c1cncc(C(=O)NC2CCCCC2)n1 [compound 80, N-cyclohexyl-6-(2-methyl-1H-imidazol-1-yl)pyrazine-2-carboxamide]
42 | 9 nM | CO[C@H]1CC[C@H](NC(=O)c2cc(C)nc(-n3ccnc3)n2)CC1 [compound 99, 2-(1H-imidazol-1-yl)-N-((1r,4r)-4-methoxycyclohexyl)-6-methylpyrimidine-4-carboxamide]

From US12679832B2, “Compounds and their uses as CD38 inhibitors” (Nanjing Immunophage Biotech Co., Ltd., priority 2021, dated 2026)
